{"source": "patent US9358276B2", "about": "“Methods of diagnosing and treating small intestinal bacterial overgrowth (SIBO) and SIBO-related conditions” (Cedars-Sinai Medical Center, priority 1999, dated 2016)", "key": {"[1]": {"system": "rapid upper gut transit and diarrhea", "assay": "Continued pre-meal oleate/oleic acid treatment: diarrhea, stool output, symptoms", "type": "in vivo, human", "text": "Continuing oleic acid treatment at home was offered to Aresponders≅ (i.e., patients who experienced a greater than 100% increase in baseline transit time with 3.2 g oleic acid). Of the 36 responders out of the original 45 patients, 18 provided records of stool volume and frequency on- and off-treatment for comparison. The inconvenient and unappealing nature of stool collection and measurement were the primary reasons reported by responders who chose not to participate in stool collection. After completing a set of three preliminary breath hydrogen tests, each participating responder was asked to refrain from taking oleic acid for two days in order to measure off-treatment stool output for a 24-hour period. Patients were issued a stool pattern record form and a stool collection container with graduated volume markings to record the frequency and volume of bowel movements. After two days without oleic acid, each patient took 3.2 g of oleic acid mixed with 25 mL of Ensure emulsion three times a day, 30 minutes before breakfast, lunch and dinner. After taking oleic acid for two days, patients recorded stool output for another 24-hour period. With this oleic acid emulsion treatment, stool frequency decreased from 6.9±0.8 to 5.4±0.9 bowel movements per 24-hour period (p<0.05), and stool volume decreased from 1829.0±368.6 to 1322.5±256.9 per 24-hour period (p<0.05).\nThe patient was a person with a history of adolescent-onset, persistent diarrhea. […] They presented with complaints of excessive gas, postprandial bloating, diarrhea and urgency, and 3 to 7 liquid bowel movements per day. Their upper gut transit times were (min) 30 (0 g oleic acid), 117 (1.6 g oleic acid) and 101 (3.2 g oleic acid)."}, "intestinal transit": {"system": "intestinal transit", "assay": "Intestinal transit in fistulated dogs, Sqrt AUC of cumulative marker recovery", "type": "in vivo, dog", "experimental": "In 4 dogs equipped with duodenal (10 cm from pylorus) and mid-gut (160 cm from pylorus) fistulas, as described hereinbelow (Example 14), intestinal transit was compared across an isolated 150 cm test segment (between fistulas) while 0, 15, 30 or 60 mM oleate was delivered into either the proximal or distal segment of the gut as a solution of mixed micelles in pH 7.0 phosphate buffer at 2 mL/min for 90 minutes. The segment of gut not receiving oleate was perfused with phosphate buffer, pH 7.0, at 2 mL/min. 60 minutes after the start of the perfusion, […] of ^99mTc-DTPA (diethylenetriaminepentaacetic acid) was delivered as a bolus into the test segment. Intestinal transit was then measured by counting the radioactivity of 1 ml samples collected every 5 minutes from the diverted output of the mid-gut fistula.\nIntestinal transit was calculated by determining the area under the curve (AUC) of the cumulative percent recovery of the radioactive marker. The square root values of the AUC (Sqrt AUC), where 0=no recovery by 30 minutes and 47.4=theoretical, instantaneous complete recovery by time 0, were compared across region of fat exposure and oleate dose using 2-way repeated measures ANOVA (see Table 6 below)."}, "upper gut transit": {"system": "upper gut transit", "assay": "Upper gut transit time by lactulose breath hydrogen test after oleate or oleic acid", "type": "in vivo, human", "details": "five patients with persistent diarrhea", "text": "In a preliminary study, five patients with persistent diarrhea for 3 to 22 months, (one each due to vagal denervation, ileal resection for Crohn's disease, and vagotomy and antrectomy, and two due to idiopathic causes) were studied. […] This test relies on the metabolism of certain carbohydrate materials (e.g. lactulose) by the microbial flora within the caecum. By generating gas which can be detected in the expired air, it is possible to make some estimation about the initial arrival of the administered material within the colon.\nEach patient received orally in random order, 0, 1.6 or 3.2 g of sodium oleate in 25 mL Ensure (Ross), followed by 100 mL water. Thirty minutes after each dose of oleate, patients received 10 g lactulose orally, followed by 25 mL water. Breath samples were collected in commercially available breath testing bags (Quintron, Menomonee Falls, Wis.) every 10-15 minutes, and the hydrogen content of the samples was measured using a breath analyzer (Microlyzer Model 12, Quintron Instruments, Menomonee Falls, Wis.), calibrated against gas samples of known hydrogen concentration. With a syringe, a 40-mL sample of the expired breath was withdrawn from the collection bag and analyzed immediately for hydrogen concentration (ppm). The hydrogen concentration value from each sample was plotted against time. Upper gut transit time was defined as the time in minutes from ingestion of lactulose (t0) until a rise of H2 of >10 ppm. Data were further analyzed using 1-way repeated measures analysis of variance (ANOVA)(See Table 4).\nThe effect of an active lipid on transit time was determined in 8 normal human subjects (1 male and 7 females with a mean age of 35±2.6 years [SE]) and 45 patients (20 males and 25 females with a mean age of 49.1±2.5 [SE], age range from 18 to 90 years) with chronic diarrhea (i.e., continuous diarrhea for more than two months) associated with a wide variety of diagnoses and conditions (e.g., Crohn's disease; irritable bowel syndrome; short bowel syndrome; Indiana pouch; AIDS; ulcerative colitis; vagotomy; antrectomy; ileostomy; partial and complete colectomy; colon cancer; diabetes mellitus type 1; pancreatic insufficiency; radiation enteropathy; esophagectomy/gastric pull-up; total and subtotal gastrectomy; gastrojejunostomy), made by referring gastroenterologists. The method was the same as described above, except oleic acid (Penta Manufacturing, Livingston, N.J.) replaced sodium oleate in 50 mL of Ensure emulsion. All subjects refrained from taking antibiotics for at least two weeks before each testing date and during stool measurement periods. Patients were also instructed to refrain from anti-diarrheal drugs, laxatives, somatostatin analogues or anticholinergics for at least 48 hours before each test. In both the normal and patient groups, there was a significant slowing of upper gut transit time in response to oleic acid, as summarized in Table 5 below (p<0.001)."}, "SIBO": {"system": "SIBO", "assay": "Case: ADHD with SIBO, neomycin", "type": "in vivo, human", "details": "one patient", "text": "A person was brought in by their parent with a suspected diagnosis of attention deficit/hyperactivity disorder (AD type), made by a pediatrician. Concurrently, they also had significant bloating, gas and some alteration in bowel habits. They had initially been referred for diagnosis by their teachers and school counselors, because they had been having difficulty performing in school for the previous two to three years, after having previously been a very good student. Prior to the detection of SIBO, the subject had been treated with multiple pharmacologic agents for depression, including amitryptiline, with no noticeable improvement in their symptoms.\nAdditionally, they started to get AA≅ averages in school again after being in the AC≅ range."}}}
{"compound": "CCCCCCCC/C=C\\CCCCCCCC(=O)[O-].[Na+]", "note": "[oleate, sodium oleate]", "values": [{"measurement": "diarrhea", "setting": "[1]; all five patients, prolonged ingestion 15-30 minutes prior to meals", "result": "reduced diarrhea"}, {"measurement": "chronic abdominal pain, post prandial bloating and nausea", "setting": "[1]; patient with Crohn's disease", "result": "complete resolution"}, {"measurement": "weight gained", "setting": "[1]; patient with Crohn's disease", "result": 22, "unit": "lbs"}, {"measurement": "postprandial dumping syndrome", "setting": "[1]; patient with vagotomy and antrectomy", "result": "resolution of postprandial dumping syndrome"}, {"measurement": "Sqrt AUC of cumulative percent marker recovery (mean ± SE)", "setting": "intestinal transit; Distal 1/2 of gut, 15 mM", "result": "25.6 ± 1.4"}, {"measurement": "Sqrt AUC of cumulative percent marker recovery (mean ± SE)", "setting": "intestinal transit; Distal 1/2 of gut, 30 mM", "result": "18.9 ± 1.5"}, {"measurement": "Sqrt AUC of cumulative percent marker recovery (mean ± SE)", "setting": "intestinal transit; Distal 1/2 of gut, 60 mM", "result": "7.0 ± 3.8"}, {"measurement": "Sqrt AUC of cumulative percent marker recovery (mean ± SE)", "setting": "intestinal transit; Proximal 1/2 of gut, 15 mM, buffer control 41.4 ± 4.6", "result": "41.6 ± 1.4"}, {"measurement": "Sqrt AUC of cumulative percent marker recovery (mean ± SE)", "setting": "intestinal transit; Proximal 1/2 of gut, 30 mM", "result": "40.6 ± 10.2"}, {"measurement": "Sqrt AUC of cumulative percent marker recovery (mean ± SE)", "setting": "intestinal transit; Proximal 1/2 of gut, 60 mM", "result": "34.4 ± 3.0"}, {"measurement": "Transit time (mean ± SE)", "setting": "upper gut transit; 1.6 g sodium oleate in 25 mL Ensure", "result": "116 ± 11.1", "unit": "min"}, {"measurement": "Transit time (mean ± SE)", "setting": "upper gut transit; 3.2 g sodium oleate in 25 mL Ensure", "result": "140 ± 11.5", "unit": "min"}]}
{"compound": "neomycin", "values": [{"measurement": "concentration", "setting": "SIBO", "result": "able to concentrate better"}, {"measurement": "time to relapse of attention problem and bacterial overgrowth", "setting": "SIBO", "result": "Approximately two"}, {"measurement": "response to repeat treatment", "setting": "SIBO; repeat 500 mg twice daily for 10 days", "result": "improved concentration and resolution of bowel symptoms"}, {"measurement": "bowel symptoms", "setting": "SIBO; 500 mg twice daily for 10 days", "result": "resolution of their bowel symptoms"}]}
